Laboratory results reported in ChEMBL document CHEMBL1201862, “PubChem BioAssay data set” (2004).
The source made the active and inactive calls.

Key:
X-box-binding protein 1 = biological target: T1, X-box-binding protein 1 (Homo sapiens, UniProt P17861); type: functional, Cricetulus griseus;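 note: confirmatory dose-response counter-screen serving a CHOP assay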
T1 sequence (P17861 whole entry): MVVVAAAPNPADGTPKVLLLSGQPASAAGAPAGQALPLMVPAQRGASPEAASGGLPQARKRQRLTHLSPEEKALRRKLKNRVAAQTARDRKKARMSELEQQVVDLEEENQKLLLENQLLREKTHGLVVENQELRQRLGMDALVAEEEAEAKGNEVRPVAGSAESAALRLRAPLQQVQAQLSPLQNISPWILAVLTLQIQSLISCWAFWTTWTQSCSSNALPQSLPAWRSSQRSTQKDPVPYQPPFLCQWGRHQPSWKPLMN

[1] = biological target: T2, Acyl-homoserine lactone acylase PvdQ (Pseudomonas aeruginosa (strain LESB58), UniProt Q9I194); test: PvdQ acylase enzyme activity blockers – biochemical, fluorescence, plate reader and imaging, cherry-picks, dose response (AID 493231)
T2 sequence (Q9I194 whole entry): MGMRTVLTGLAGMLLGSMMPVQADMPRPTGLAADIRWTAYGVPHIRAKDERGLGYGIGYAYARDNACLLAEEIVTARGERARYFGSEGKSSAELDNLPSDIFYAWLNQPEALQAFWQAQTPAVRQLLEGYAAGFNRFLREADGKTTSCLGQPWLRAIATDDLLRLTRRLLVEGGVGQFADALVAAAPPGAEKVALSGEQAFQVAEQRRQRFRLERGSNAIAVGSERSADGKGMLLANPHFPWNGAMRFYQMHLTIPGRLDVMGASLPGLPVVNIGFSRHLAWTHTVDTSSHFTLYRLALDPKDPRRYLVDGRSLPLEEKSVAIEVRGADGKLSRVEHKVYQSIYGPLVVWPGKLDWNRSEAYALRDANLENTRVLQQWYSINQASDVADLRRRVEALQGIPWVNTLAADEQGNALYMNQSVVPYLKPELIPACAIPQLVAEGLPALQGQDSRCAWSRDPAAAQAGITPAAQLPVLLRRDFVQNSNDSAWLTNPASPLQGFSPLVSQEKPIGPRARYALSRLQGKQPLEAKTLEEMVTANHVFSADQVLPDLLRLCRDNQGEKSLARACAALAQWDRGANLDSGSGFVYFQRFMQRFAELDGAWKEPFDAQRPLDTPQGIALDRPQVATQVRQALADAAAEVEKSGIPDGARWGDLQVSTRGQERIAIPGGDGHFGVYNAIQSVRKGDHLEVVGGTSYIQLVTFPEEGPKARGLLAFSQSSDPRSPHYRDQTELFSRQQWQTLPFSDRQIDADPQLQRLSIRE

Cytochrome P450 2C19 = Cytochrome P450 2C19 (Homo sapiens, UniProt P33261); test: Cytochrome panel assay with activity outcomes. Panel member name: p450-cyp2c19 Compounds with AC50 equal or less than 10 uM are considered active; type: functional; settings: read-out: AC50
Cytochrome P450 2D6 = Cytochrome P450 2D6 (Homo sapiens, UniProt P10635);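 note: CYP2D6 member of a cytochrome P450 panel assay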
BJ [2] = test: BJ-TERT fibroblast viability loss – cell-based, RAS-independent, luminescence, dose response (AID 1933); type: functional; settings: Homo sapiens
[3] = biological target: Luciferin 4-monooxygenase (Photinus pyralis, UniProt P08659); test: Counter Screen for Luciferase-based Assay Positives. [Related pubchem assays: 620, 618, 411 ]
BJ [4] = test: cells; type: functional, cell-based; settings: Homo sapiens
HT-1080 = test: HT1080 cell viability loss – fluorescence readout (AID 620); type: functional, cell-based; settings: Homo sapiens
BJ [5] = test: BJ-TERT-LT-ST fibroblast viability loss – cell-based, RAS-independent, luminescence, dose response (AID 1935); type: functional; settings: Homo sapiens;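 note: BJ fibroblasts immortalized with TERT plus LT and ST oncogenes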
[6] = DRD fibroblast viability loss – cell-based, non-viral oncogenic, luminescence, dose response (AID 1934); type: functional; settings: Homo sapiens
[7] = luciferase reporter signal suppression in cells – H4 neuroglioma cells, luminescence, dose response (AID 1990); type: functional, cell-based
[8] = biological target: T3, RNA-binding protein pos-1 (Caenorhabditis elegans, UniProt G5EF15); test: disruptors of C. elegans POS-1 RNA interaction – biochemical, fluorescence polarization, dose response (AID 1964);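 note: purified POS-1 fused to maltose binding protein made in E. coli; potency of compounds blocking POS-1 binding to fluorescent RNA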
T3 sequence (G5EF15 whole entry): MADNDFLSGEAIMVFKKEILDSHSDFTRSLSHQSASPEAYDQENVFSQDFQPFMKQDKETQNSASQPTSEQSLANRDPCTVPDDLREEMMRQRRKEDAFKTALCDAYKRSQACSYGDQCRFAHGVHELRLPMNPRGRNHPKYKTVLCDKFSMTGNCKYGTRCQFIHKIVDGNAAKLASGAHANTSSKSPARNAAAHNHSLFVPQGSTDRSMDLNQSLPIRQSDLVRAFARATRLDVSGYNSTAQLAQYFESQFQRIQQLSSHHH

[9] = biological target: Glyceraldehyde-3-phosphate dehydrogenase (Homo sapiens, UniProt P04406)
[10] = Luminescence Cell-Based Dose Response HTS to Identify Inhibitors of 5'UTR Stem-Loop Driven Prion Protein mRNA Translation in H4 Neuroglioblastoma Cells. [Related pubchem assays: 1827 (Project Summary), 1813 (Primary HTS)]; type: functional
[11] = biological target: T4, Zinc finger protein mex-5 (Caenorhabditis elegans, UniProt Q9XUB2); test: potency of MEX-5 RNA-binding blockers – biochemical, C. elegans, fluorescence polarization, dose response (AID 1960)
T4 sequence (Q9XUB2 whole entry): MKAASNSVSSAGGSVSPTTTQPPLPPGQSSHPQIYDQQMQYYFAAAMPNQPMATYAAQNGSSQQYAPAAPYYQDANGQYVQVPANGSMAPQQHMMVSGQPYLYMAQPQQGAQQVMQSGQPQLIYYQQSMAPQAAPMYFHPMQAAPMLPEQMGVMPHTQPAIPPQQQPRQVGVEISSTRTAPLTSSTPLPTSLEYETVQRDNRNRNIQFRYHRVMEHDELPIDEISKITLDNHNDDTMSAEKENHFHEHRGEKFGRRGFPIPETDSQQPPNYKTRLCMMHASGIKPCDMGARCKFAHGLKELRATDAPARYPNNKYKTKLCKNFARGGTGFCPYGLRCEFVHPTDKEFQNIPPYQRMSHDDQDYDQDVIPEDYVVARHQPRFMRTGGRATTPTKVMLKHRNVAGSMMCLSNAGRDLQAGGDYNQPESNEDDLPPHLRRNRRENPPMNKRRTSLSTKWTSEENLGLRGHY

[12] = alpha-synuclein stem-loop luciferase translation blockers – H4 neuroglioma cells, luminescence, confirmation (AID 1988); type: functional, cell-based
[13] = biological target: Heat shock protein HSP 90-alpha (Homo sapiens, UniProt P07900); test: Luminescence-based dose response biochemical high throughput screening assay for inhibitors of the Heat Shock Protein 90 (HSP90). [Related pubchem assays: 1831 (Summary AID.), 1846 (Confirmation screen.), 1789 (Primary screen.)]
[14] = HEK-293T cell viability reduction – luminescence, B-cell screen hits, cytotoxicity control for BCR NF-kB inhibitor project, dose response (AID 489021); type: functional, cell-based;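 note: HEK-293T cells carrying an NF-kB luciferase reporter; cells exposed to compound for about 14 hours before viability readout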
Aspartyl aminopeptidase = biological target: T5, Aspartyl aminopeptidase (Plasmodium falciparum 3D7, UniProt Q8I2J3)
T5 sequence (Q8I2J3 whole entry): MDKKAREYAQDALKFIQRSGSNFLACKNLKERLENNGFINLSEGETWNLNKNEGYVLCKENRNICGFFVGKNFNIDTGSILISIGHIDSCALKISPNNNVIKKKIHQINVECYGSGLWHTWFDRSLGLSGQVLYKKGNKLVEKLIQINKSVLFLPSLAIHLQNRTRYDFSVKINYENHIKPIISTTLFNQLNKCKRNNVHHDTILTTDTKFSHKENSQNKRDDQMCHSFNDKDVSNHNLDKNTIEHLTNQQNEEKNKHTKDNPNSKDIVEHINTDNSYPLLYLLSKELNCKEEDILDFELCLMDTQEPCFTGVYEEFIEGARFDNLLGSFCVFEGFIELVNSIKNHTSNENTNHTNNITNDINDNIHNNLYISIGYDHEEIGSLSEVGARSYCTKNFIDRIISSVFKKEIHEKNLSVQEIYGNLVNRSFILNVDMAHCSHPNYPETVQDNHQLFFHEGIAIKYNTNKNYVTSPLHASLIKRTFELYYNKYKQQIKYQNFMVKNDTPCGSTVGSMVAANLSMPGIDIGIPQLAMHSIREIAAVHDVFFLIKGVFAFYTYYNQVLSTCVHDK

Procathepsin L = Procathepsin L (Homo sapiens, UniProt P07711)
[15] = biological target: Peroxisome proliferator-activated receptor gamma/Nuclear receptor coactivator 2 (Homo sapiens, UniProt P37231); type: functional;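 note: agonist potency for raising coactivator recruitment to the receptor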
[16] = biological target: Peroxisome proliferator-activated receptor gamma/Nuclear receptor coactivator 1 (Homo sapiens, UniProt P37231); type: functional;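 note: agonist potency as compounds enhance coactivator SRC-1 recruitment to PPARgamma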
[17] = biological target: Peroxisome proliferator-activated receptor gamma/Nuclear receptor coactivator 3 (Homo sapiens, UniProt P37231); type: functional;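 note: agonist potency for raising coactivator recruitment to the receptor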
[18] = biological target: T6, Rac GTPase-activating protein 1 (Homo sapiens, UniProt Q9H0H5); test: blockers of MgcRacGAP-driven Rac1 GTP hydrolysis – biochemical, ADP Hunter fluorescence, primary and confirmatory, confirmation (AID 624330); type: functional
T6 sequence (Q9H0H5 whole entry): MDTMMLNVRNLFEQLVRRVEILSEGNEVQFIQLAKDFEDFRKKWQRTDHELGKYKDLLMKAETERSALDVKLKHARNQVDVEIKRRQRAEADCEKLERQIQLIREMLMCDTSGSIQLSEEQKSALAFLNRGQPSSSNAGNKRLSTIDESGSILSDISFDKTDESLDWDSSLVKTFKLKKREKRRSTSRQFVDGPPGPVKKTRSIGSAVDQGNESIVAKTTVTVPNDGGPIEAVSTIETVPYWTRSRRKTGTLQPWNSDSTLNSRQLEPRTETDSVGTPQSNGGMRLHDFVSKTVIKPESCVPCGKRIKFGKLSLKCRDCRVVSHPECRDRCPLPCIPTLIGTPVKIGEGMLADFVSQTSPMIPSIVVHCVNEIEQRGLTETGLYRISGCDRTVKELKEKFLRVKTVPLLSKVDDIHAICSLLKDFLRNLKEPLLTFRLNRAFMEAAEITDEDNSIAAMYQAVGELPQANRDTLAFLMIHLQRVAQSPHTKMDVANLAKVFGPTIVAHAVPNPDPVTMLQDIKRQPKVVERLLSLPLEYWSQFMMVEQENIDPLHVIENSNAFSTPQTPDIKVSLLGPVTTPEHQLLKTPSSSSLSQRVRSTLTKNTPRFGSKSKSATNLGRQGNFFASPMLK

[19] = A cytotoxicity screen of small molecule inhibitors of the PhoP region in Salmonella typhi identified in the primary screen. [Related pubchem assays: 1850, 1864, 1985 ]; type: functional
[20] = biological target: T7, Oxysterols receptor LXR-beta (Homo sapiens, UniProt P55055); type: functional, cell-based;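 note: Cell-based luminescence dose-response assay of agonist activity at LXR, run as a confirmatory counterscreen to a daf-12 agonist screen; HEK293 cells with Gal4-LXR fusion and GAL4-driven luciferase reporter; agonist potency from rising luciferase signal of a Gal4-LXR reporter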
T7 sequence (P55055 whole entry): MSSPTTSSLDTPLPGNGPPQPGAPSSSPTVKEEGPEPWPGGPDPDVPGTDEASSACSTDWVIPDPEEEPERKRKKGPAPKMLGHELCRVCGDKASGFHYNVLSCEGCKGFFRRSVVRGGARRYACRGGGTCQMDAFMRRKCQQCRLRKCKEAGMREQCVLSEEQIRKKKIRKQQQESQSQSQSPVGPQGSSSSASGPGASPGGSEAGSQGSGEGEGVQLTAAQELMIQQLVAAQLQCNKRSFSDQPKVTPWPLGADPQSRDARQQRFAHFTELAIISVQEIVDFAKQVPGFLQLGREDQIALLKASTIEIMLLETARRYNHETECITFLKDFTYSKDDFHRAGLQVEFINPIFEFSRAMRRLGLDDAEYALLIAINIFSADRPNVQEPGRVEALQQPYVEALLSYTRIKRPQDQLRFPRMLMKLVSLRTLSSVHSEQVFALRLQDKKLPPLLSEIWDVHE

Sequence of Luciferin 4-monooxygenase (P08659 whole entry): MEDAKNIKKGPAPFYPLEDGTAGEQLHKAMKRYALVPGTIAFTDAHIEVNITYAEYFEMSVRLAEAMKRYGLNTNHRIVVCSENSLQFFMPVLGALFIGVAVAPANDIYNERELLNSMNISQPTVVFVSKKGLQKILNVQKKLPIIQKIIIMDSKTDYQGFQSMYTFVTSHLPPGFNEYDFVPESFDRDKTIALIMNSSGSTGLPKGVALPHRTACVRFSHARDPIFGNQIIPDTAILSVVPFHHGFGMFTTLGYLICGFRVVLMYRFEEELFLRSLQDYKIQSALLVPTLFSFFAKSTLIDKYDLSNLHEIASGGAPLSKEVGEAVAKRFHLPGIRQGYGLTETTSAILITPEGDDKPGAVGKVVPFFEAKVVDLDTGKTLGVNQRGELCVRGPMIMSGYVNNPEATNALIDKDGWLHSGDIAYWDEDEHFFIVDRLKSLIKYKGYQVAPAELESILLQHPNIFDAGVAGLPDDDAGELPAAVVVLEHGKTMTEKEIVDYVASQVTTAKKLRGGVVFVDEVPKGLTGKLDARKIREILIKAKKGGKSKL
Sequence of Procathepsin L (P07711 whole entry): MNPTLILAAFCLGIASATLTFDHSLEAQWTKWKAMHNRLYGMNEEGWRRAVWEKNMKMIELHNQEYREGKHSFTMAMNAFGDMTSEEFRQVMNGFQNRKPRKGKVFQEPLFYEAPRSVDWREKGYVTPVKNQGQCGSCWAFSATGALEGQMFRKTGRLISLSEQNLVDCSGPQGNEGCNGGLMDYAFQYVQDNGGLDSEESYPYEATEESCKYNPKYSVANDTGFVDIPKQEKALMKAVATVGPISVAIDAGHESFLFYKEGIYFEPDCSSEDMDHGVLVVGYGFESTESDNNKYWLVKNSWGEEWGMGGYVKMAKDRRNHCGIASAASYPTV
Sequence of Cytochrome P450 2D6 (P10635 whole entry): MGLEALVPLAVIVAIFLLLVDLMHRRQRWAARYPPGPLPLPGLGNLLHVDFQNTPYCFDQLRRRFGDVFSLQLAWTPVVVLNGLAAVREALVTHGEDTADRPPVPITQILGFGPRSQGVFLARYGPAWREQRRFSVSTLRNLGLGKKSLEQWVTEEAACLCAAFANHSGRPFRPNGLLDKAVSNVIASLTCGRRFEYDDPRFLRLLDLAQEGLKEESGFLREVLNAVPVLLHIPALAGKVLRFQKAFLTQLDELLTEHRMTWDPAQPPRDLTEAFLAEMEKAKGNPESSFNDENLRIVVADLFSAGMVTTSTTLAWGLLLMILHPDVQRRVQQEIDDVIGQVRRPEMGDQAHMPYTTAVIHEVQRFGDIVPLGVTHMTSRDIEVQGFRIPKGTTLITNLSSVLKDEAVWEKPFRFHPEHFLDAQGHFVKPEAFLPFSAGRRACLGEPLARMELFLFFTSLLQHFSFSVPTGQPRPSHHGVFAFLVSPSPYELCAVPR
Sequence of Peroxisome proliferator-activated receptor gamma/Nuclear receptor coactivator 2 (P37231 whole entry): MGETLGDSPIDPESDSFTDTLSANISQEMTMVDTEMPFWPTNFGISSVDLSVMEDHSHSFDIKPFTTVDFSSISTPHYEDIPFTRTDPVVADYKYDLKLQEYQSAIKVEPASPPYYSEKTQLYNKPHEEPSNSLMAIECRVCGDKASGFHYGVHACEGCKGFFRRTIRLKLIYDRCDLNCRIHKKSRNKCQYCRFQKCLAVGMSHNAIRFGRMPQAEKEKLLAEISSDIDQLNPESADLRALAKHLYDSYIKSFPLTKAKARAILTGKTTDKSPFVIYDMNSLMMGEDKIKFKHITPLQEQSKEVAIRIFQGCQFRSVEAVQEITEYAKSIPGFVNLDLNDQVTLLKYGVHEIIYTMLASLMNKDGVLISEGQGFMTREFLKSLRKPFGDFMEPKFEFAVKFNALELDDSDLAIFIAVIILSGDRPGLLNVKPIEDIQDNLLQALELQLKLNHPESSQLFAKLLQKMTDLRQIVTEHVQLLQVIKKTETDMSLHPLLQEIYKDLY
Sequence of Peroxisome proliferator-activated receptor gamma/Nuclear receptor coactivator 2 (Q15596 whole entry, further chain): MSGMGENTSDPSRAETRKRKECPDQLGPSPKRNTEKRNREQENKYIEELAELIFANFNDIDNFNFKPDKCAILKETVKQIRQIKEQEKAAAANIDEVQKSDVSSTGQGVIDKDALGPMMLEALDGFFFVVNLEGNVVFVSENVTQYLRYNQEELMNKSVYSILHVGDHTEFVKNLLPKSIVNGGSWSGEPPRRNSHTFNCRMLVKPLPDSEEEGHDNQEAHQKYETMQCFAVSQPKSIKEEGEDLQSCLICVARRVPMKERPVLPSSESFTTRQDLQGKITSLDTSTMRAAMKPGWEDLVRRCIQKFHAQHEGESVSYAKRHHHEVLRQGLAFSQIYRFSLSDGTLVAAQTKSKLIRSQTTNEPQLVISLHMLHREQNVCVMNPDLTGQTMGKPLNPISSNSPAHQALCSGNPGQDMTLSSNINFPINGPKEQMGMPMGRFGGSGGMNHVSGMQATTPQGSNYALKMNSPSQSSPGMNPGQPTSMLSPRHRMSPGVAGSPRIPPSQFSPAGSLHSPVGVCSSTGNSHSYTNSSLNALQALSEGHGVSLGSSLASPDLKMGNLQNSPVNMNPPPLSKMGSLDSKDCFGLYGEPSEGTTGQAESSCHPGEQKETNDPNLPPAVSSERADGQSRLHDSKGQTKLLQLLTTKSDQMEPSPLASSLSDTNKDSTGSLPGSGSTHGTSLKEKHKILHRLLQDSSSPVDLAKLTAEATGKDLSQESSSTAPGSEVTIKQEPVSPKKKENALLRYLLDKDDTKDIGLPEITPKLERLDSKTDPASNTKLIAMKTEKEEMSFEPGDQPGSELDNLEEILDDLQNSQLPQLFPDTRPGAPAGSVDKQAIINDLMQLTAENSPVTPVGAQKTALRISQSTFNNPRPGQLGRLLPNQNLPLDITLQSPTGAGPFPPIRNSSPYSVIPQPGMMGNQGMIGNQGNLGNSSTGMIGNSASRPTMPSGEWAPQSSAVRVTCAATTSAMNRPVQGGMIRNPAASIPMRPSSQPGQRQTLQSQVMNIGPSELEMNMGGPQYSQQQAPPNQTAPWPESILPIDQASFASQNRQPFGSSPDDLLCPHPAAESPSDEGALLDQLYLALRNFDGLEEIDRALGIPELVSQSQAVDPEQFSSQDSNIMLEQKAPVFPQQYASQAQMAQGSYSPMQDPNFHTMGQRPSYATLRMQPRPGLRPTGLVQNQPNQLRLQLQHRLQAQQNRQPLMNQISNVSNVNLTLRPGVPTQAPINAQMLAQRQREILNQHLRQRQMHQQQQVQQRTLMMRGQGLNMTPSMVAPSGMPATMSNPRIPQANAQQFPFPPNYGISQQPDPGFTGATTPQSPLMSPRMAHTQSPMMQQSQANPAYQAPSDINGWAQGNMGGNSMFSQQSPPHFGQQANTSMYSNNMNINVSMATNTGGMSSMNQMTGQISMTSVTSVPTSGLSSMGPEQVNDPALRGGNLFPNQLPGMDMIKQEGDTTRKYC
Sequence of Glyceraldehyde-3-phosphate dehydrogenase (P04406 whole entry): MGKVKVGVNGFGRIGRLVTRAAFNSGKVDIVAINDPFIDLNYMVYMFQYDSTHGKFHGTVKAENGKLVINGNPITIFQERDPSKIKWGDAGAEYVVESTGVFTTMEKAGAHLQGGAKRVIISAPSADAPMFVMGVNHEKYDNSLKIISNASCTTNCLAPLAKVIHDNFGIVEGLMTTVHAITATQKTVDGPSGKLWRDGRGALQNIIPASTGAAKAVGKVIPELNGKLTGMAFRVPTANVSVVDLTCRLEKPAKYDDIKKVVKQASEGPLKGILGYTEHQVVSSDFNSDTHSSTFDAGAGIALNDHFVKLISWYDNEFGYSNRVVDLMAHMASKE
Sequence of Cytochrome P450 2C19 (P33261 whole entry): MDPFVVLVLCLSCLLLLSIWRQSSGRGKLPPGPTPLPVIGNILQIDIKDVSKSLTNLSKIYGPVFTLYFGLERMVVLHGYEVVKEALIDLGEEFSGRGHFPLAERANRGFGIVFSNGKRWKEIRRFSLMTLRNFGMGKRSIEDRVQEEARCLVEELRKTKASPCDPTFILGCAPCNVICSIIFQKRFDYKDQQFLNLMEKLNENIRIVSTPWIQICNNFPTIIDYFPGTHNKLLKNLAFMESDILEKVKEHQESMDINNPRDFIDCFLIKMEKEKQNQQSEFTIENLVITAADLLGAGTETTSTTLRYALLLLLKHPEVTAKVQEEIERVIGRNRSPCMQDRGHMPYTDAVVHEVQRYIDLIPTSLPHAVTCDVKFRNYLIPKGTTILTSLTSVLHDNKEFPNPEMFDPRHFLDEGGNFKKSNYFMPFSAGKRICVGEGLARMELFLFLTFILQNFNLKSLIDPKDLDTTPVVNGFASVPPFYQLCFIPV

For `FC(F)C(F)(F)C(F)(F)C(F)(F)c1cc(-c2ccccc2)[nH]n1`, the “Absolute IC50 (XBP1)” value (X-box-binding protein 1) was 10 µM.

With `Cc1cc(S(=O)(=O)NCC2CC2)c(Cl)cc1Cl` the AC50 [1] was 1.1 µM (active).

In the case of `COc1ccc(/C=C/C(=O)c2ccoc2)cc1`, the AC50 [1] is reported as 11.4 µM (active), the AC50 (Cytochrome P450 2C19) is reported as 14.1 µM (inconclusive) and the AC50 (Cytochrome P450 2D6) is reported as 25.1 µM (inconclusive).

In the case of `COc1ccc(-c2ccc(OC)cc2)cc1`, the AC50 [1] is reported as 78.8 µM (active).

With `COc1ccc(-c2nc3ccccc3[nH]2)cc1` the EC50 (BJ [2]) was 8.49 µM (active), the EC50 [3] was 11 µM (active) and the EC50 (BJ [4]) was 19.1 µM (active). The EC50 (HT-1080) was 20.3 µM (active), the EC50 (BJ [5]) was 22.7 µM (active) and the EC50 [6] was 9.35 µM (active).

For `CCN(CC)c1ccc2cc(NC(=O)CCC(=O)O)c(=O)oc2c1`, the EC50 [7] was < 0.1 µM (active), the EC50 [8] was 120 µM (inconclusive) and the EC50 [3] was > 100 µM (not active). For the same compound, the IC50 [9] was > 100 µM (not active), the EC50 [10] was 3.7 µM (active) and the EC50 [11] was 7.36 µM (active). For the same compound, the EC50 [12] was 0.491 µM (active), the EC50 (HT-1080) was > 50 µM (not active) and the IC50 [13] was > 60 µM (not active). The IC50 [14] was > 80 µM (inactive).

In the case of `O=C(Nc1cc(Cl)ccc1Cl)Nn1cnnc1`, the IC50 (Aspartyl aminopeptidase) is reported as 0.5 µM (active) and the IC50 (Procathepsin L) is reported as > 59.6 µM (not active).

For `S=C(Nc1cc(Cl)ccc1Cl)Nn1cnnc1`, the IC50 (Aspartyl aminopeptidase) was 0.662 µM (active) and the IC50 (Procathepsin L) was > 59.6 µM (not active).

With `COc1ccc(N2C(=O)/C(=C\Nn3cnnc3)c3ccccc3C2=O)cc1` the IC50 (Aspartyl aminopeptidase) was 1.56 µM (active) and the IC50 (Procathepsin L) was > 59.6 µM (not active).

For `COC(=O)c1[nH]c2cc(OC)c(OC)cc2c1NC(=O)Oc1ccccc1`, the EC50 [15] was 90.7 µM (not active), the EC50 [16] was 97.7 µM (not active) and the EC50 [17] was > 79.4 µM (not active). The IC50 [18] was 28.8 µM (active).

With `Cc1ccc(OCCCCn2c(CO)nc3ccccc32)cc1` the EC50 [19] was > 50 µM (active).

In the case of `O=c1c2ccccc2[nH]c2ccc(F)cc12`, the EC50 [19] is reported as > 50 µM (active).

For `CCOC(=O)c1ccc(S(=O)(=O)N2CCN(CCC#N)CC2)cc1`, the EC50 [19] was > 50 µM (active).

In the case of `O/C(=C\C=N\c1cccc(O)c1)c1ccccc1`, the EC50 [3] is reported as 1.03 µM (active), the EC50 (HT-1080) is reported as > 50 µM (not active) and the EC50 [20] is reported as > 67.6 µM (inactive). The EC50 (cells) was > 67.6 µM (inactive).
